Assay results from patent US10472341B2, “Bicyclic tetrahydrothiazepine derivatives useful for the treatment of neoplastic and/or infectious diseases” (APEIRON BIOLOGICS AG, priority 2015, dated 2019).
Where a name gives a salt, the structure may show the parent alone.

How the values were obtained:
[1] = tested on: TCR-mediated activation of CD4 and CD8 cells; assay: Anti-CD3 PD model in mice: CD69 on splenic T-cells, plasma cytokines; format: in vivo, mouse; conditions: for CD4+ / CD8+ / CD69+ / CD69+ in CD4+ / CD69+ in CD8+: spleen flowcytometry; for CD4+ / CD8+ / CD69+ / CD69+ in CD4+ / CD69+ in CD8+ / IFN-γ / IL-2 / IL-6 / IL-10 / TNF-α: t=4.0 h; for IFN-γ / IL-2 / IL-6 / IL-10 / TNF-α: terminal plasma
Source text: Detection of antigen-specific T cell activation and proliferation in vivo is technically challenging since it requires the development and validation of research reagents to detect low-frequency T cells specific for a cognate antigen and also the establishment of specific measurement procedure for following cellular activation and/or proliferation in blood or secondary lymphoid organs. As a surrogate model for the determination of polyclonal T-cell activation in mice, a pharmacological system was designed and employed where adult […] mice were injected with anti-CD3 antibody to elicit TCR triggering and responses of a broad population of peripheral T-cells. To quantitatively determine T-cell responses, systemic IL-2, TNF-alpha and IFN-gamma levels were measured in blood serum as well as the expression of the early activation marker CD69 on splenic CD4 or CD8 T-cells […] after treatment.
It was investigated whether the oral application of compound affected the low-level of activation of a major subset of splenic T-cells by injection of anti-CD3 antibody as exemplified by increased serum levels of IL-2, IFN-gamma and TNF-alpha vis-à-vis untreated mice as well as an increase of CD69-expressing splenic T-cells from 2-10% to 15-20%.
[…] Compound example 1 was dosed twice orally as suspension (0.5% methylcellulose in water) at t=−1.0 h and t=1.0 h. • 3. Mice were terminated at t=4.0 h and their spleens and plasma harvested for flow cytometry and cytokine analysis respectively. • 4. Cytokine concentrations in terminal plasma samples were determined with MSD kits according to manufacturer's instructions.

Monocytes = assay: FC receptor stimulation on myeloid cells (monocytes, precoated anti-GD2-Abs): TNF-alpha, IL-1, IL-6; format: cell-based, human
Description: Isolated Monocytes were plated in Xvivo medium at 1.5*10^5 cells per in 96 well culture plates and stimulated by precoated anti-GD2-Abs (10 μg/ml, Apeiron) where indicated. Cytokine secretion was determined by enzyme-linked immunosorbent assay (ELISA). The results of the above experiment titled “Enhancement of reactivity of immune cells to stimulation by tumor-cell bound therapeutic antibody” indicate that compounds can enhance FcR stimulation of immune cells. However, in a set-up as used therein, it is difficult to subtract the effects of tumor-cell contact from the effects of Fc-receptor stimulation. Therefore, the effect of FcR-stimulation by the same anti-GD2-Ab was tested in a tumor-cell free assay set-up, where the anti-GD2 antibodies were coated to cell culture plates, thereby mimicking cell-bound antibodies.

N[C@H]1CS(=O)(=O)c2cc(F)c(C(=O)NC3CC3(F)F)cc2N(Cc2ccc(Cl)cc2)C1=O (stereo partly drawn) [Example 1, (3R)-3-amino-5-[(4-chlorophenyl)methyl]-N-(2,2-difluorocyclopropyl)-8-fluoro-1,1,4-trioxo-2,3,4,5-tetrahydro-1λ^6,5-benzothiazepine-7-carboxamide hydrochloride]
TCR-mediated activation of CD4 and CD8 cells in vivo ([1]; mice, anti-CD3 i.p., compound oral, five hours): is able to substantially enhance TCR-mediated activation of CD4 and CD8 cells in vivo | CD4+ ([1]; 25 mg/kg dosed twice orally): 22.95% | CD8+ ([1]; 25 mg/kg dosed twice orally): 16.33% | CD69+ ([1]; 25 mg/kg dosed twice orally): 12.65% | CD69+ in CD4+ ([1]; 25 mg/kg dosed twice orally): 26.75% | CD69+ in CD8+ ([1]; 25 mg/kg dosed twice orally): 32.40% | CD4+ ([1]; 50 mg/kg dosed twice orally): 22.86% | CD8+ ([1]; 50 mg/kg dosed twice orally): 16.42% | CD69+ ([1]; 50 mg/kg dosed twice orally): 17.06% | CD69+ in CD4+ ([1]; 50 mg/kg dosed twice orally): 32.14% | CD69+ in CD8+ ([1]; 50 mg/kg dosed twice orally): 46.44% | CD4+ ([1]; 100 mg/kg dosed twice orally): 23.18% | CD8+ ([1]; 100 mg/kg dosed twice orally): 16.70% | CD69+ ([1]; 100 mg/kg dosed twice orally): 28.58% | CD69+ in CD4+ ([1]; 100 mg/kg dosed twice orally): 47.50% | CD69+ in CD8+ ([1]; 100 mg/kg dosed twice orally): 63.96% | IFN-γ ([1]; 25 mg/kg dosed twice orally): 5.26 pg/mL | IL-2 ([1]; 25 mg/kg dosed twice orally): 391.33 pg/mL | IL-6 ([1]; 25 mg/kg dosed twice orally): 461.65 pg/mL | IL-10 ([1]; 25 mg/kg dosed twice orally): 39.88 pg/mL | TNF-α ([1]; 25 mg/kg dosed twice orally): 46.78 pg/mL | IFN-γ ([1]; 50 mg/kg dosed twice orally): 12.99 pg/mL | IL-2 ([1]; 50 mg/kg dosed twice orally): 849.50 pg/mL | IL-6 ([1]; 50 mg/kg dosed twice orally): 1186.80 pg/mL | IL-10 ([1]; 50 mg/kg dosed twice orally): 50.88 pg/mL | TNF-α ([1]; 50 mg/kg dosed twice orally): 97.78 pg/mL | IFN-γ ([1]; 100 mg/kg dosed twice orally): 50.77 pg/mL | IL-2 ([1]; 100 mg/kg dosed twice orally): 1413.82 pg/mL | IL-6 ([1]; 100 mg/kg dosed twice orally): 2185.05 pg/mL | IL-10 ([1]; 100 mg/kg dosed twice orally): 68.38 pg/mL | TNF-α ([1]; 100 mg/kg dosed twice orally): 170.92 pg/mL

CC(C)NC(=O)c1cc2c(cc1F)S(=O)(=O)C[C@H](N)C(=O)N2Cc1ccc(Cl)cc1.Cl [Example 77, (3R)-3-amino-5-[(4-chlorophenyl)methyl]-8-fluoro-1,1,4-trioxo-N-(propan-2-yl)-2,3,4,5-tetrahydro-1λ^6,5-benzothiazepine-7-carboxamide hydrochloride]
IL-1 (Monocytes; FcR stimulated, 0.01 μM): 1.14 ng/mL | IL-6 (Monocytes; FcR stimulated, 0.01 μM): 1.61 ng/mL | TNF-alpha (Monocytes; FcR stimulated, 0.01 μM): 1.62 ng/mL | IL-1 (Monocytes; FcR stimulated, 0.03 μM): 1.52 ng/mL | IL-6 (Monocytes; FcR stimulated, 0.03 μM): 2.33 ng/mL | TNF-alpha (Monocytes; FcR stimulated, 0.03 μM): 2.49 ng/mL | IL-1 (Monocytes; FcR stimulated, 0.1 μM): 1.09 ng/mL | IL-6 (Monocytes; FcR stimulated, 0.1 μM): 2.10 ng/mL | TNF-alpha (Monocytes; FcR stimulated, 0.1 μM): 2.57 ng/mL | IL-1 (Monocytes; FcR stimulated, 0.3 μM): 4.16 ng/mL | IL-6 (Monocytes; FcR stimulated, 0.3 μM): 5.65 ng/mL | TNF-alpha (Monocytes; FcR stimulated, 0.3 μM): 6.57 ng/mL | IL-1 (Monocytes; FcR stimulated, 1 μM): 5.88 ng/mL | IL-6 (Monocytes; FcR stimulated, 1 μM): 7.46 ng/mL | TNF-alpha (Monocytes; FcR stimulated, 1 μM): 11.02 ng/mL | IL-1 (Monocytes; FcR stimulated, 3 μM): 5.50 ng/mL | IL-6 (Monocytes; FcR stimulated, 3 μM): 5.93 ng/mL | TNF-alpha (Monocytes; FcR stimulated, 3 μM): 14.11 ng/mL | IL-1 (Monocytes; FcR stimulated, 10 μM): 7.44 ng/mL | IL-6 (Monocytes; FcR stimulated, 10 μM): 5.86 ng/mL | TNF-alpha (Monocytes; FcR stimulated, 10 μM): 16.44 ng/mL | IL-1 (Monocytes; FcR stimulated, 30 μM): 7.77 ng/mL | IL-6 (Monocytes; FcR stimulated, 30 μM): 6.20 ng/mL | TNF-alpha (Monocytes; FcR stimulated, 30 μM): 14.85 ng/mL | activation of myeloid cells by FcR stimulation (TNF-alpha, IL-1, IL-6 secretion) (Monocytes; monocytes, plate-coated anti-GD2 antibodies): directly enhanced the activation of myeloid cells by FcR stimulation, which resulted in increased secretion of TNF-alpha, IL-1 and IL-6 | IL-6 (Monocytes; unstimulated, 0.1 μM): 0.14 ng/mL | IL-6 (Monocytes; unstimulated, 0.3 μM): 0.13 ng/mL | IL-6 (Monocytes; unstimulated, 1 μM): 0.14 ng/mL | IL-6 (Monocytes; unstimulated, 3 μM): 0.13 ng/mL | IL-6 (Monocytes; unstimulated, 10 μM): 0.13 ng/mL | IL-6 (Monocytes; unstimulated, 30 μM): 0.13 ng/mL | TNF-alpha (Monocytes; unstimulated, 30 μM): 0.02 ng/mL
